In patent US20230046416A1 (Soteria Biotherapeutics, Inc., priority 2019, published 2023):

System: AZ21
Experiment: Biolayer interferometry, Ab59 binding to immobilized AZ21
Description: Binding kinetics between BCl-2 fusion protein Ab59 and AZ-21 was assayed by biolayer interferometry. […] Curves represent measured data points on an Octet RED384.

Sequence of AZ21 (P10415 1-207 C158A limits assumed): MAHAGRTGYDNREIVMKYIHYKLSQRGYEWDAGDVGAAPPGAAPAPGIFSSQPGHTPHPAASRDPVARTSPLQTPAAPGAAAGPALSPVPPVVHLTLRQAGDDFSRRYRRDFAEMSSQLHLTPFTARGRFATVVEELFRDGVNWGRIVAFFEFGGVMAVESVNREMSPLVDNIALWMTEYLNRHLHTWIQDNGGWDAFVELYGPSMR

binding to AZ21 in the presence of ABT-199 (with ABT-199, FIG. 25B): potent and reversible binding
binding to AZ21 in the absence of ABT-199 (without ABT-199, FIG. 25B): no significant binding
Substance: Ab59: heterodimeric Fc fusion protein: BCl-2 C158A linked to a human IgG1 Fc, plus a second human IgG1 Fc domain
